Experimental data reported in US4077981A, “Certain 1-alkyl-2-dichlorophenyliminopyrrolidines” (Bayer Aktiengesellschaft, priority 1968, dated 1978).

Tests used:
Boophilus, Biarra strain [1] = assay: In-vitro test for adulticidal effect on ticks (24 hours); design: species or system Boophilus microplus; settings: Table 4, after 24 hours, at the concentrations stated
Method: (§1) In addition, the adulticidal effectiveness of the preparation of the given active compound after 24 hours is determined by ascertaining the voluntary movement of limbs and bodies of the immersed adult ticks after stimulation with a fine needle compared with the voluntary movement of limbs and bodies of the untreated adult ticks. The effectiveness is stated in %, 100% meaning that no movements of any kind of the limbs and bodies were any longer detectable, and 0% signifying that the ticks moved limbs and bodies in normal manner.

[2] = tested on: Boophilus microplus, Biarra strain (resistant); assay: In-vitro test for ovicidal effect on ticks (Biarra strain); settings: ovicidal only (marked not adulticidal); for Ovicidal effect: 50% inhibition with the stated concentration of active compound: Table 4, concentration giving 50% inhibition; for Ovicidal effect: 100% inhibition with the stated concentration of active compound: Table 4, concentration giving 100% inhibition
Method: In-vitro Test for Ovicidal Effect on Ticks
The emulsion concentrate so obtained is diluted with water to the application concentration desired in each case.
After immersion of, in each case, 10 female specimens of the various strains of ticks, the individual ticks are transferred to plastic dishes, the bottom of each of which is covered with a disc of filter paper.

Boophilus, Biarra strain [3] = assay: In-vitro test for ovicidal and adulticidal effect on ticks; design: species or system Boophilus microplus
Method: In-vitro test for ovicidal and adulticidal effect on ticks
The ovicidal effect is determined as stated in Example 1.
as §1
The results below were obtained in a similar manner to those in accordance with Example 4.

[4] = Table 4, concentration giving 50% inhibition
[5] = Table 4, concentration giving 100% inhibition
[6] = Table 5, concentration giving 50% inhibition
[7] = Table 5, concentration giving 100% inhibition

Compound | Adulticidal effect (Boophilus, Biarra strain [1]) | Ovicidal effect: 50% inhibition with the stated concentration of active compound [2] | Ovicidal effect: 100% inhibition with the stated concentration of active compound [2] | Adulticidal and ovicidal effect: 50% inhibition with the stated concentration of active compound (Boophilus, Biarra strain [3]; [4]) | Adulticidal and ovicidal effect: 100% inhibition with the stated concentration of active compound (Boophilus, Biarra strain [3]; [5]) | also measured
C=CCN1CCCC1=Nc1cc(Cl)ccc1Cl | not adulticidal | 0.03 % by weight | 0.1 % by weight | – | – | –
C=CCN1CCCC1=Nc1cccc(Cl)c1Cl | not adulticidal | 0.008 % by weight | 0.01 % by weight | – | – | –
C=CCN1CCCC1=Nc1ccc(Cl)c(Br)c1 | – | – | – | 0.05 % by weight | 0.1 % by weight | –
CCCCN1CCCC1=Nc1ccc(Cl)c(Br)c1 | – | – | – | 0.03 % by weight | 0.1 % by weight | –
CCCN1CCCC1=Nc1ccc(Cl)c(Br)c1 | – | – | – | 0.1 % by weight | 0.3 % by weight | –
CCN1CCCC1=Nc1ccc(Cl)c(Br)c1 | – | – | – | 0.05 % by weight | 0.1 % by weight | –
CCCCN1CCCC1=Nc1ccc(F)cc1Cl | not adulticidal | 0.01 % by weight | 0.03 % by weight | – | – | –
C=CCN1CCCC1=Nc1ccc(F)cc1Cl | not adulticidal | 0.03 % by weight | 0.1 % by weight | – | – | –
CCCN1CCCC1=Nc1ccc(F)cc1Cl | not adulticidal | 0.03 % by weight | 0.1 % by weight | – | – | –
CC=CCN1CCCC1=Nc1ccc(Cl)c(Cl)c1 | – | – | – | 0.03 % by weight | 0.01 % by weight | –
C=CCN1CCCC1=Nc1ccc(Cl)c(C)c1 | – | – | – | 0.02 % by weight | 0.03 % by weight | –
C=CCN1CCCC1=Nc1ccc(C)c(Cl)c1 | – | – | – | 0.01 % by weight | 0.03 % by weight | –
CC=CCN1CCCC1=Nc1cc(Cl)c(Cl)cc1Cl | – | – | – | – | – | Adulticidal and ovicidal effect: 50% inhibition with the stated concentration of active compound (Boophilus, Biarra strain [3]; [6]): 0.03 % by weight; Adulticidal and ovicidal effect: 100% inhibition with the stated concentration of active compound (Boophilus, Biarra strain [3]; [7]): 0.1 % by weight
CC=CCN1CCCC1=Nc1ccc(C)c(Cl)c1 | – | – | – | – | – | Adulticidal and ovicidal effect: 50% inhibition with the stated concentration of active compound (Boophilus, Biarra strain [3]; [6]): 0.008 % by weight; Adulticidal and ovicidal effect: 100% inhibition with the stated concentration of active compound (Boophilus, Biarra strain [3]; [7]): 0.1 % by weight
CC=CCN1CCCC1=Nc1ccc(Cl)c(C)c1 | – | – | – | – | – | Adulticidal and ovicidal effect: 50% inhibition with the stated concentration of active compound (Boophilus, Biarra strain [3]; [6]): 0.02 % by weight; Adulticidal and ovicidal effect: 100% inhibition with the stated concentration of active compound (Boophilus, Biarra strain [3]; [7]): 0.03 % by weight
CC=CCN1CCCC1=Nc1ccc(Cl)cc1C | – | – | – | – | – | Adulticidal and ovicidal effect: 50% inhibition with the stated concentration of active compound (Boophilus, Biarra strain [3]; [6]): 0.008 % by weight; Adulticidal and ovicidal effect: 100% inhibition with the stated concentration of active compound (Boophilus, Biarra strain [3]; [7]): 0.01 % by weight
